In patent US10590422B2, “Anticancer therapeutic intervention” (PHYZAT BIOPHARMACEUTICALS, LDA., priority 2017, dated 2020):

How the values were obtained:
ASCT2 = target: T1, ASCT2 (Homo sapiens, UniProt Q15758); test: Sodium-dependent [^14C]-L-alanine uptake in carcinoma cells, sensitivity to unlabelled L-alanine; type: cell-based; details: epithelial carcinoma cells; 3 mM unlabelled L-alanine; FIGS. 3E-3H
T1 construct: recognized the presence of LAT1 and ASCT2 in all cancer cell lines; endogenous in cells
T1 sequence (Q15758 1-541): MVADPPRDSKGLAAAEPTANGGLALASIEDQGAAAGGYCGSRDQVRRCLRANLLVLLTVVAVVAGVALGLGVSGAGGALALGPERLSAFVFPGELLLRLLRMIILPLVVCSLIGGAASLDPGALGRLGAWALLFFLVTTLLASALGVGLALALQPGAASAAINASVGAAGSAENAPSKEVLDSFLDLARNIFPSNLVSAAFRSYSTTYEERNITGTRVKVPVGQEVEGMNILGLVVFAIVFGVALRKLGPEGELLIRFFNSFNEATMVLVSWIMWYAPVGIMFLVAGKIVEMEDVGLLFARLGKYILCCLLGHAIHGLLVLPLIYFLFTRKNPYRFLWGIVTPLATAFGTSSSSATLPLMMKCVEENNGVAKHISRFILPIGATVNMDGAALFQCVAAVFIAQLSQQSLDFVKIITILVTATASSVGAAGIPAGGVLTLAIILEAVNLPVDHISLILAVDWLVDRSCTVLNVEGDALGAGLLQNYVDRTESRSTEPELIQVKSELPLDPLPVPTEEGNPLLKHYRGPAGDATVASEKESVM
Protocol: (§1) Cells were plated in 24-well plates (Sarstedt, Germany) and grown until confluence was reached. On the day of the experiment, Cell culture medium was aspirated and cells were preincubated for 15 min in Hanks' medium (ChCl 140 mM, KCl 5 mM, MgSO4.7H2O 0.8 mM, K2HPO4 0.33 mM, KH2PO4 0.44 mM, MgCl2.6H2O 1 mM, CaCl2) 0.025 mM, Tris-HCl 9.75 mM, pH 7.4). Uptake was initiated by the addition of Hanks' medium with 0.25 μM [^14C]-L-alanine in the absence and in the presence of 3 mM unlabeled L-alanin. During preincubation and incubation cells were continuously shaken and maintained at 37° C. Uptake was terminated after 1 min by rapid removal of uptake solution by means of a vacuum pump connected to a Pasteur pipette, followed by a rapid wash with Hanks' medium. Subsequently, cells were solubilized in 0.1% vol/vol Triton X-100 (dissolved in 5 mM Tris-HCl, pH 7.4), and radioactivity was measured by liquid scintillation counting.

LAT1 = target: T2, LAT1 (Homo sapiens, UniProt Q01650); test: Sodium-independent [^14C]-L-leucine uptake in carcinoma cells, sensitivity to unlabelled L-leucine; type: cell-based; details: epithelial carcinoma cells; 3 mM unlabelled L-leucine; FIGS. 3A-3D
T2 construct: recognized the presence of LAT1 and ASCT2 in all cancer cell lines; endogenous in cells
Protocol: as §1, with “experiment, cell” for “experiment, Cell”, “medium (NaCl” for “medium (ChCl”, “by” for “by the”, “μM [^14C]-L-leucine” for “μM [^14C]-L-alanine”, “unlabeled L-leucine.” for “unlabeled L-alanin.”

T2 sequence (Q01650 whole entry): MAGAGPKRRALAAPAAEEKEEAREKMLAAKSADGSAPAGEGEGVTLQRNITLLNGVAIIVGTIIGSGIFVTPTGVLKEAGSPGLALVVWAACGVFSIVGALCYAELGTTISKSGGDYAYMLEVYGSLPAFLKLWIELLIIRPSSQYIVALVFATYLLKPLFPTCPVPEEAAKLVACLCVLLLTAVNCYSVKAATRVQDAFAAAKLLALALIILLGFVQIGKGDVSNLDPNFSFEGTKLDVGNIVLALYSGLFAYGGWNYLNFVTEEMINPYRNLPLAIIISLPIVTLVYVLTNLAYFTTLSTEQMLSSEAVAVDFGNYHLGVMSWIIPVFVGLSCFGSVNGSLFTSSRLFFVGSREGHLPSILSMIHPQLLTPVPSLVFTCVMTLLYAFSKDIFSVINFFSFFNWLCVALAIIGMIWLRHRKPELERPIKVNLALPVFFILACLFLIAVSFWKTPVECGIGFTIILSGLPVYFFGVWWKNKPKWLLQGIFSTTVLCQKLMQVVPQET
T2 sequence (P08195 102-630 partner): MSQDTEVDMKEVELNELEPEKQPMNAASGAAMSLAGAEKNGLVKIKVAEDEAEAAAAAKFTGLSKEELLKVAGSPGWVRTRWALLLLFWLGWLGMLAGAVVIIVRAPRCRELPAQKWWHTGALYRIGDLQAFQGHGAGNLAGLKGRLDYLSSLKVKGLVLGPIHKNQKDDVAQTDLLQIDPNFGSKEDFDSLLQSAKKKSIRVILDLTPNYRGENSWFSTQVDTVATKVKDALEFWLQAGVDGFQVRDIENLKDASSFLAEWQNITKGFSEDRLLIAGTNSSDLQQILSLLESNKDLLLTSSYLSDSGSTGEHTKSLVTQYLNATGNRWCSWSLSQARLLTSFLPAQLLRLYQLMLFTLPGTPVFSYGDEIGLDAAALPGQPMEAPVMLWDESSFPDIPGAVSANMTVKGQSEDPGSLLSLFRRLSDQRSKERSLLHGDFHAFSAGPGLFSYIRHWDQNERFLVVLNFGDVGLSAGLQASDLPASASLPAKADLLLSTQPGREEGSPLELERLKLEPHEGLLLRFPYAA

Row | Compound | Sodium-dependent [^14C]-L-alanine (0.25 μM) uptake at initial rate of uptake (1 min) (ASCT2) | Sodium-independent [^14C]-L-leucine (0.25 μM) uptake at initial rate of uptake (1 min) (LAT1)
1 | C[C@H](N)C(=O)O [L-alanine] | significantly (P<0.01) reduced | –
2 | CC(C)C[C@H](N)C(=O)O [L-leucine] | – | significantly (P<0.001) reduced
